Test results from patent US10604739B2, “Cardiomyocyte production” (Cellular Dynamics International, Inc., priority 2009, dated 2020).
Values joined by “and” are separate entries in the source; they are usually repeats but may differ in a detail not shown here. Equal entries are not always repeated. Values belong to the compound of their own block, whether it stands above or below them.

Legend:
iPS 6.1 and iPS 6.1 MRB = assay: iPS cell passaging with NaCitrate in Double Stacks; format: cell-based, human
Experimental: Dissociated iPS cells were rinsed with D-PBS (Dulbecco's Phosphate Buffered Saline) free of Ca^2+ and Mg^2+ and the media were aspirated. The cells were then incubated with appropriate amount (i.e., 1 mL for one well of 6-well plate, 15 mL for T-150 flask, etc) of 15 mM NaCitrate, 165 mM KCl, pH 7.3, OSM 340, at room temperature for 6-15 minutes. After incubation, the NaCitrate solution were aspirated with the cells still loosely attached. The cells were resuspended in appropriate amount of TeSR with 1 μM H1152 and distributed to Matrigel™ surfaced vessel.
For scale up production of the starting material from T150 flasks to Corning Double Stacks, and for assessment of the ability of iPS cells to be passaged as single cells/small clumps with NaCitrate, iPS 6.1 and iPS 6.1 MRB were passaged with 15 mM NaCitrate as single cells or small cell clumps into double stacks while maintaining T150 control flasks split with dispase (see FIG. 1 for experimental design). […] Cells were assessed at passage 4 and passage 7 with cardiogenesis, pluripotency panel, and karyotype. […] Aggregate images and cTnT staining for cardiomyocytes were analyzed on day 14 after splitting (FIGS. 4A-D, FIGS. 5A-C, FIGS. 6A-B, FIGS. 7A-C). Pluripotency profiles of iPS cells after passaging with NaCitrate and dispase was compared by flow cytometry using five pluripotency markers (FIGS. 8A-C). It appears safe to passage iPS cells at least four times with the NaCitrate method.
Cardiogenesis was also analyzed for those iPS cells after passaging with NaCitrate and data were compiled in FIG. 9. […] The last three “spinner” samples come from Double Stack iPS 6.1 MRB cells that were left over from various Double stack harvests. An average yield of 110e6 cells/L was obtained in 1 L spinner with cells passaged in double stacks with NaCitrate.

ROCK2 = conditions: ROCK1/ROCK2; cited from earlier work
[1] = tested on: pluripotent stem cell-derived cardiomyocytes; conditions: cited from earlier work
iPS6.1 cells [2] = assay: iPS6.1 Four Corners experiment, FGF x HGF cardiac induction; format: cell-based, human; conditions: iPS6.1 cells, 25 ng/mL FGF and/or 50 ng/mL HGF, single T25 flask, day 14; listed as FGF only
Experimental: (§1) Aggregate formation and cardiac induction procedures of those iPS cells at different initial densities were performed essentially the same as described in Examples 4 except different concentrations of human HGF (hHGF) and FGF were applied to Aggregate Formation Medium, Aggregate Transition Medium and Cardiac Induction Medium.
Concurrent with the second iPS growth factor titration, a simple experiment (Table 19) was set up with iPS6.1 cells to test the 2×2 matrix of 0 and 25 ng/mL FGF and 0 and 50 ng/mL HGF. The positive concentrations of FGF and HGF were chosen based on the current best practices for iPS6.1 cells at the time and were identical to the conditions used for cardiac induction of H1 cells in both the plated and suspension processes. This experiment confirmed previous work showing the necessity of FGF for the process.

iPS6.1 cells [3] = assay: iPS6.1 Growth Factor Titration #1; format: cell-based, human; conditions: hbFGF 0 or 25 ng/mL, FIGS. 29A-B
Experimental: as §1
Conditions without FGF had virtually no surviving aggregates and no measurable cardiomyocytes (FIGS. 29A-B). On the other hand, all conditions with FGF yielded cardiomyocytes independent of HGF concentration (FIGS. 29A-B).

H9-TGZ cells = assay: H9-TGZ Growth Factor Titration #2; format: cell-based, human; conditions: FIGS. 31A-C
Experimental: as §1
While the iPS6.1 optimization was underway, a separate series of experiments was conducted to optimize the growth factor concentrations for the H9-TGZ cells. […] Therefore, the FGF range tested was higher than that in the recent iPS6.1 experiments. This experiment confirmed that optimum cardiomyocyte production requires 100-150 ng/mL FGF with the H9-TGZ cells (FIGS. 31A-C).

iPS6.1 cells [4] = assay: iPS6.1 Growth Factor Titration #2; format: cell-based, human; conditions: hbFGF 3-100 ng/mL, FIGS. 30A-B
Experimental: as §1
Based on the results of the first experiment (see FIGS. 29A-B), the second iPS6.1 growth factor titration focused on the lower dose range for both FGF and HGF (FIGS. 30A-B). […] However, it is important to note that in no case did the omission of HGF lead to the failure of a condition which was otherwise successful in the presence of HGF.

Karyotype (iPS 6.1 and iPS 6.1 MRB; cells split 4 times with NaCitrate): maintained a normal karyotype
Compound: O=C([O-])CC(O)(CC(=O)[O-])C(=O)[O-].[Na+].[Na+].[Na+] [NaCitrate]
Average yield of cardiomyocytes (iPS 6.1 and iPS 6.1 MRB; 1 L spinner, cells passaged in double stacks with NaCitrate): 110e6 cells/L | Doubling time (iPS 6.1 and iPS 6.1 MRB; Double Stack NaCitrate conditions, 15 mM NaCitrate): ~30 h

Compound: COc1ccc([C@@H]2Sc3ccccc3N(CCN(C)C)C(=O)[C@@H]2OC(C)=O)cc1 [diltiazem]
Contractile activity [1]: inhibits contractile activity in a dose-dependent manner

Compound: CC(C)NCC(O)c1ccc(O)c(O)c1 (centres unmarked) [isoprenaline]
Chronotropic effect [1]: positive chronotropic effect

Compound: CNC[C@H](O)c1cccc(O)c1 [phenylephrine]
Chronotropic effect [1]: positive chronotropic effect

Compound: FGF: human recombinant basic FGF, R&D systems
% cTNT+ (iPS6.1 cells [2]): 11.2% and 11.9% and 13.1% | Requirement for CM differentiation process (iPS6.1 cells [3]): required for the CM differentiation process to be successful | FGF concentration required for optimum cardiomyocyte production (H9-TGZ cells): 100 to 150 ng/mL | FGF dose response (aggregate survival, cardiogenesis) (iPS6.1 cells [4]): too little FGF led to poor aggregate survival and high doses had survival but lacked cardiogenesis
